Reference: patent publication US20090012103A1, “SUBSTITUTED HETEROCYCLIC COMPOUNDS” (priority 2007, published 2009)

target: wild-type human cardiac sodium channel, hNav1.5 (Homo sapiens, UniProt Q14524); test: Late INa screening assay (late sodium current, PatchXpress whole cell patch clamp); format: cell-based; settings: compound at 10 μM; read-out: Late INa % blk
Sequence (Q14524 whole entry): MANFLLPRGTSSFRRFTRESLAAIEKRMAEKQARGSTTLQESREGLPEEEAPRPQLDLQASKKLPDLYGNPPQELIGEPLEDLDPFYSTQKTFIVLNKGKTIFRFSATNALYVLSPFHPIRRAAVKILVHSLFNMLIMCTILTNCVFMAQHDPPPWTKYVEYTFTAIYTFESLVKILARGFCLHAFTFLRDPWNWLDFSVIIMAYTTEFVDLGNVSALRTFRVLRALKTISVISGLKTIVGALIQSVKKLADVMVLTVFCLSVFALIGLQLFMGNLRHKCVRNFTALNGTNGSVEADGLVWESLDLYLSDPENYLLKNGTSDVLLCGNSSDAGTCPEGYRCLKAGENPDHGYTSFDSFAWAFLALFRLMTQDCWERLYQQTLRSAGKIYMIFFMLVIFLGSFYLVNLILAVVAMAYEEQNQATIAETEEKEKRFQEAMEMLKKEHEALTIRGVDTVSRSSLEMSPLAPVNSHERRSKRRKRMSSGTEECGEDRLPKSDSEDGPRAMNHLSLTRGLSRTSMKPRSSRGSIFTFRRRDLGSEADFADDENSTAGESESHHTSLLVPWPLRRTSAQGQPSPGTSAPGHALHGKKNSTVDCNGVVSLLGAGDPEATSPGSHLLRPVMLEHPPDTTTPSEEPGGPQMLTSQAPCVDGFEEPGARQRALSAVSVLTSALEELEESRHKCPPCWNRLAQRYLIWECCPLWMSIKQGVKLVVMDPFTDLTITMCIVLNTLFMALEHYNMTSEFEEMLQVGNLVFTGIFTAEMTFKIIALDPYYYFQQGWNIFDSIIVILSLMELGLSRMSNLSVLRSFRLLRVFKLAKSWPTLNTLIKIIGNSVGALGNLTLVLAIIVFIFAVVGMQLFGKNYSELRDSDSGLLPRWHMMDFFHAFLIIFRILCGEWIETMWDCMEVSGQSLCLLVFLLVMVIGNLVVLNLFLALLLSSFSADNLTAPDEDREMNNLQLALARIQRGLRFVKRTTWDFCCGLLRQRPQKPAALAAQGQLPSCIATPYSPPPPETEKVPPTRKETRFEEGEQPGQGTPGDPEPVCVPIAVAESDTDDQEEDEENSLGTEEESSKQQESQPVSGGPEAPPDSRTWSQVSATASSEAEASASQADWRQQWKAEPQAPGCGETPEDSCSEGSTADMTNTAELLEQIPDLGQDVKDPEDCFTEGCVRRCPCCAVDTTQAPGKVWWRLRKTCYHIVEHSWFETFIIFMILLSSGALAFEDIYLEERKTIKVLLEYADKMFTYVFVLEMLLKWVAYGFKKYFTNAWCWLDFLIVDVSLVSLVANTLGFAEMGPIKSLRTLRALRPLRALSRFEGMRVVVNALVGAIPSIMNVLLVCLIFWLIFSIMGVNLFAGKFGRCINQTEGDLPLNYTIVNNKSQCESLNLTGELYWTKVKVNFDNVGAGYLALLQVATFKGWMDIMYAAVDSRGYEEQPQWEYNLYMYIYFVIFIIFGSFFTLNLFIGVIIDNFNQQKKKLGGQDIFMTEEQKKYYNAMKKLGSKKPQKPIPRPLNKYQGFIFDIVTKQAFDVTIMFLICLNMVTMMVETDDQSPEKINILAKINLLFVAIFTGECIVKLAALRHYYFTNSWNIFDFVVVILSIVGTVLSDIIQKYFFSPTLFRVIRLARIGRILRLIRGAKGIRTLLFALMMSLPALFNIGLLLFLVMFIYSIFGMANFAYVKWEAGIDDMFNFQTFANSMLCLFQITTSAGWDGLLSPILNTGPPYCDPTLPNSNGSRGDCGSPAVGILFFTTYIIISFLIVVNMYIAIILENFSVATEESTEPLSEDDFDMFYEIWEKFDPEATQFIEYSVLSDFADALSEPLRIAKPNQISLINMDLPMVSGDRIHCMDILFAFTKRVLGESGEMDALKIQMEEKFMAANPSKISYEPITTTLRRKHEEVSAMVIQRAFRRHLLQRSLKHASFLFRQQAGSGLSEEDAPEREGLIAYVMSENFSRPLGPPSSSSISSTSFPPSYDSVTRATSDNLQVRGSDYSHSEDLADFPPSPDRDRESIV

Structure (SMILES)	inhibition at 10 µM [%]
CC1=C(C(=O)OCc2ccccc2)C(c2ccccc2-c2cccc(C(=O)O)c2)C2=C(CCCC2=O)N1 (centres unmarked) [PT-248, 2′-(3-(benzyloxycarbonyl)-2-methyl-5-oxo-1,4,5,6,7,8-hexahydroquinolin-4-yl)biphenyl-3-carboxylic acid]	27.2
CCOC(=O)C1=C(C)NC2=C(C(=O)CCC2)C1c1ccccc1-c1ccc(C(=O)O)cc1 (centres unmarked) [PT-250, 2′-(3-(ethoxycarbonyl)-2-methyl-5-oxo-1,4,5,6,7,8-hexahydroquinolin-4-yl)biphenyl-4-carboxylic acid]	7.6
COC(=O)c1ccc(OCCOC(=O)C2=C(C)Nc3nnnn3C2c2cccc3ccccc23)cc1 (centres unmarked) [PT-251, 2-(4-(methoxycarbonyl)phenoxy)ethyl 5-methyl-7-(naphthalen-1-yl)-4,7-dihydrotetrazolo[1,5-a]pyrimidine-6-carboxylate]	11.5
CC1=C(C(=O)OCc2ccccc2)C(c2ccccc2-c2cccc(C(=O)O)c2)n2nnnc2N1 (centres unmarked) [PT-253, 2′-(6-(benzyloxycarbonyl)-5-methyl-4,7-dihydrotetrazolo[1,5-a]pyrimidin-7-yl)biphenyl-3-carboxylic acid]	9.1
CC1=C(C(=O)OCc2ccccc2)C(c2ccccc2B(O)O)n2nnnc2N1 (centres unmarked) [PT-255, 2-(6-(benzyloxycarbonyl)-5-methyl-4,7-dihydrotetrazolo[1,5-a]pyrimidin-7-yl)phenylboronic acid]	20.6
CC1=C(C(=O)OCc2ccccc2)C(c2sccc2B(O)O)n2nnnc2N1 (centres unmarked) [PT-256, 2-(6-(benzyloxycarbonyl)-5-methyl-4,7-dihydrotetrazolo[1,5-a]pyrimidin-7-yl)thiophen-3-ylboronic acid]	25.7
CC1=C(C(=O)OCc2ccccc2)C(c2cccc3ccccc23)n2nnnc2N1CC(=O)O (centres unmarked) [PT-257, 2-(6-(benzyloxycarbonyl)-5-methyl-7-(naphthalen-1-yl)tetrazolo[1,5-a]pyrimidin-4(7H)-yl)acetic acid]	7.4
CCOC(=O)C1=C(C)N(CC(=O)O)c2nnnn2C1c1cccc2ccccc12 (centres unmarked) [PT-258, 2-(6-(ethoxycarbonyl)-5-methyl-7-(naphthalen-1-yl)tetrazolo[1,5-a]pyrimidin-4(7H)-yl)acetic acid]	1.6
CC1=C(C(=O)OC2Cc3ccccc3C2)C(c2cccc3ccccc23)n2nnnc2N1 (centres unmarked) [PT-260, 2,3-dihydro-1H-inden-2-yl 5-methyl-7-(naphthalen-1-yl)-4,7-dihydrotetrazolo[1,5-a]pyrimidine-6-carboxylate]	74.8
CC1=C(c2nnc(Cc3ccccc3)o2)C(c2cccc3ccccc23)n2nnnc2N1 (centres unmarked) [PT-261, 2-benzyl-5-(5-methyl-7-(naphthalen-1-yl)-4,7-dihydrotetrazolo[1,5-a]pyrimidin-6-yl)-1,3,4-oxadiazole]	59.4
CC1=C(C(=O)OC(C)(C)Cc2ccccc2)C(c2ccccc2Br)c2cn[nH]c2N1 (centres unmarked) [PT-263, 2-methyl-1-phenylpropan-2-yl 4-(2-bromophenyl)-6-methyl-4,7-dihydro-1H-pyrazolo[3,4-b]pyridine-5-carboxylate]	38.8
CC1=C(C(=O)N2CCCCC2)C(c2cccc3ccccc23)C2=C(CCCC2=O)N1 (centres unmarked) [PT-265, 2-methyl-4-(naphthalen-1-yl)-3-(piperidine-1-carbonyl)-4,6,7,8-tetrahydroquinolin-5(1H)-one]	18.6
CC1=C(C(=O)NNC(=O)Cc2ccccc2)C(c2cccc3ccccc23)C2=C(CCCC2=O)N1 (centres unmarked) [PT-266, 2-methyl-4-(naphthalen-1-yl)-5-oxo-N′-(2-phenylacetyl)-1,4,5,6,7,8-hexahydroquinoline-3-carbohydrazide]	8.8
CC1=C(c2nnc(C)o2)C(c2cccc3ccccc23)n2nnnc2N1 (centres unmarked) [PT-267, 2-methyl-5-(5-methyl-7-(naphthalen-1-yl)-4,7-dihydrotetrazolo[1,5-a]pyrimidin-6-yl)-1,3,4-oxadiazole]	17
CCOC(=O)C1=C(C)Nc2nnnn2C1c1ccccc1OCc1cccc(C(=O)O)c1 (centres unmarked) [PT-268, 3-((2-(6-(ethoxycarbonyl)-5-methyl-4,7-dihydrotetrazolo[1,5-a]pyrimidin-7-yl)phenoxy)methyl)benzoic acid]	9.5
CCOC(=O)C1=C(C)Nc2nnnn2C1c1cccc(OCc2cccc(C(=O)O)c2)c1 (centres unmarked) [PT-269, 3-((3-(6-(ethoxycarbonyl)-5-methyl-4,7-dihydrotetrazolo[1,5-a]pyrimidin-7-yl)phenoxy)methyl)benzoic acid]	12.3
CC1=C(C(=O)OCc2cccc(-c3nnn[nH]3)c2)C(c2cccc3ccccc23)n2nnnc2N1 (centres unmarked) [PT-271, 3-(1H-tetrazol-5-yl)benzyl 5-methyl-7-(naphthalen-1-yl)-4,7-dihydrotetrazolo[1,5-a]pyrimidine-6-carboxylate]	5.8
CCOC(=O)C1=C(C)Nc2nnnn2C1c1ccccc1Oc1cccc(C(=O)O)c1 (centres unmarked) [PT-272, 3-(2-(6-(ethoxycarbonyl)-5-methyl-4,7-dihydrotetrazolo[1,5-a]pyrimidin-7-yl)phenoxy)benzoic acid]	-4.9

Structure (SMILES)	inhibition at 10 µM [%]
COC(=O)C1=C(C)Nc2nnnn2C1c1sc2ccccc2c1-c1cccc(C(=O)O)c1 (centres unmarked) [PT-273, 3-(2-(6-(methoxycarbonyl)-5-methyl-4,7-dihydrotetrazolo[1,5-a]pyrimidin-7-yl)benzo[b]thiophen-3-yl)benzoic acid]	14.1
CCOC(=O)C1=C(C)Nc2nnnn2C1c1cccc(Oc2cccc(C(=O)O)c2)c1 (centres unmarked) [PT-274, 3-(3-(6-(ethoxycarbonyl)-5-methyl-4,7-dihydrotetrazolo[1,5-a]pyrimidin-7-yl)phenoxy)benzoic acid]	16.8
COC(=O)C1=C(C)Nc2nnnn2C1c1c(-c2cccc(C(=O)O)c2)sc2ccccc12 (centres unmarked) [PT-275, 3-(3-(6-(methoxycarbonyl)-5-methyl-4,7-dihydrotetrazolo[1,5-a]pyrimidin-7-yl)benzo[b]thiophen-2-yl)benzoic acid]	9.4
CC1=C(C(=O)OCc2ccccc2)C(c2ccsc2B(O)O)n2nnnc2N1 (centres unmarked) [PT-277, 3-(6-(benzyloxycarbonyl)-5-methyl-4,7-dihydrotetrazolo[1,5-a]pyrimidin-7-yl)thiophen-2-ylboronic acid]	18
CC1=C(C(=O)OCc2cccc(C#N)c2)C(c2cccc3ccccc23)n2nnnc2N1 (centres unmarked) [PT-278, 3-cyanobenzyl 5-methyl-7-(naphthalen-1-yl)-4,7-dihydrotetrazolo[1,5-a]pyrimidine-6-carboxylate]	63.9
CC1=C(C(=O)OCc2ccc(Cn3cccn3)cc2)C(c2ccccc2OCc2ccccc2)n2nnnc2N1 (centres unmarked) [PT-282, 4-((1H-pyrazol-1-yl)methyl)benzyl 7-(2-(benzyloxy)phenyl)-5-methyl-4,7-dihydrotetrazolo[1,5-a]pyrimidine-6-carboxylate]	30.2
CC1=C(C(=O)OCc2ccc(Cn3cccn3)cc2)C(c2ccc(N(C)C)c3ccccc23)n2nnnc2N1 (centres unmarked) [PT-283, 4-((1H-pyrazol-1-yl)methyl)benzyl 7-(4-(dimethylamino)naphthalen-1-yl)-5-methyl-4,7-dihydrotetrazolo[1,5-a]pyrimidine-6-carboxylate]	11.4
COc1ccc(C2C(C(=O)OCc3ccc(Cn4cccn4)cc3)=C(C)Nc3nnnn32)c2ccccc12 (centres unmarked) [PT-284, 4-((1H-pyrazol-1-yl)methyl)benzyl 7-(4-methoxynaphthalen-1-yl)-5-methyl-4,7-dihydrotetrazolo[1,5-a]pyrimidine-6-carboxylate]	49.5
CCOC(=O)C1=C(C)Nc2nnnn2C1c1ccccc1OCc1ccc(C(=O)O)cc1 (centres unmarked) [PT-285, 4-((2-(6-(ethoxycarbonyl)-5-methyl-4,7-dihydrotetrazolo[1,5-a]pyrimidin-7-yl)phenoxy)methyl)benzoic acid]	-2.2
CCOC(=O)C1=C(C)Nc2nnnn2C1c1cccc(OCc2ccc(C(=O)O)cc2)c1 (centres unmarked) [PT-286, 4-((3-(6-(ethoxycarbonyl)-5-methyl-4,7-dihydrotetrazolo[1,5-a]pyrimidin-7-yl)phenoxy)methyl)benzoic acid]	8.8
CC1=C(C(=O)OCc2ccc(-n3cccn3)cc2)C(c2cccc3ccccc23)n2nnnc2N1 (centres unmarked) [PT-289, 4-(1H-pyrazol-1-yl)benzyl 5-methyl-7-(naphthalen-1-yl)-4,7-dihydrotetrazolo[1,5-a]pyrimidine-6-carboxylate]	3.3
CC1=C(C(=O)OCCOc2ccc(C(=O)O)cc2)C(c2cccc3ccccc23)n2nnnc2N1 (centres unmarked) [PT-290, 4-(2-(5-methyl-7-(naphthalen-1-yl)-4,7-dihydrotetrazolo[1,5-a]pyrimidine-6-carbonyloxy)ethoxy)benzoic acid]	14.4
CCOC(=O)C1=C(C)Nc2nnnn2C1c1ccccc1Oc1ccc(C(=O)O)cc1 (centres unmarked) [PT-291, 4-(2-(6-(ethoxycarbonyl)-5-methyl-4,7-dihydrotetrazolo[1,5-a]pyrimidin-7-yl)phenoxy)benzoic acid]	15.2
CCOC(=O)C1=C(C)Nc2nnnn2C1c1sccc1-c1ccc(C(=O)O)cc1 (centres unmarked) [PT-292, 4-(2-(6-(ethoxycarbonyl)-5-methyl-4,7-dihydrotetrazolo[1,5-a]pyrimidin-7-yl)thiophen-3-yl)benzoic acid]	18.7
CC1=C(C(=O)OCC2CC2)C(c2c(-c3ccc(C(=O)O)cc3)sc3ccccc23)n2nnnc2N1 (centres unmarked) [PT-293, 4-(3-(6-((cyclopropylmethoxy)carbonyl)-5-methyl-4,7-dihydrotetrazolo[1,5-a]pyrimidin-7-yl)benzo[b]thiophen-2-yl)benzoic acid]	7.7
CCOC(=O)C1=C(C)Nc2nnnn2C1c1cccc(Oc2ccc(C(=O)O)cc2)c1 (centres unmarked) [PT-295, 4-(3-(6-(ethoxycarbonyl)-5-methyl-4,7-dihydrotetrazolo[1,5-a]pyrimidin-7-yl)phenoxy)benzoic acid]	7
COC(=O)C1=C(C)Nc2nnnn2C1c1c(-c2ccc(C(=O)O)cc2)sc2ccccc12 (centres unmarked) [PT-296, 4-(3-(6-(methoxycarbonyl)-5-methyl-4,7-dihydrotetrazolo[1,5-a]pyrimidin-7-yl)benzo[b]thiophen-2-yl)benzoic acid]	13.3
